This is an account of results in US20260327250A1, “3-ETHYLAMINO-INDOLE DIMERS AS SEROTONERGIC AGENTS USEFUL FOR THE TREATMENT OF DISORDERS RELATED THERETO” (MINDSET PHARMA INC., priority 2022, published 2026).

Data set [1] concerns the target T1, human 5-hydroxytryptamine receptor 1A (5-HT1A) (Homo sapiens, UniProt P08908).
T1 construct: expressed in transfected cells; host or cells: HTR1A&Ga15-CHO
T1 sequence (P08908 1-422): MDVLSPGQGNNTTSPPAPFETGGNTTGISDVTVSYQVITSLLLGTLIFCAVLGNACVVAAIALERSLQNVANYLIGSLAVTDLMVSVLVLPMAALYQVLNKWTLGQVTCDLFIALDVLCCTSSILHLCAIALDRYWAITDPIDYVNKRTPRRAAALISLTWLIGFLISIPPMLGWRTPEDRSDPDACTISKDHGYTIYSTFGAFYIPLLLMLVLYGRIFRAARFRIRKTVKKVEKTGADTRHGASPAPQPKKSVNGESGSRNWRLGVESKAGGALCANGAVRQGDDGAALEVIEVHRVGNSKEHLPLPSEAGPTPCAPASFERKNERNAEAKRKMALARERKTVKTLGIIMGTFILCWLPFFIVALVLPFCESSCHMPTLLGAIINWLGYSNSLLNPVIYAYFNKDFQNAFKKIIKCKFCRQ
The experiment in a line: Human 5-HT1A functional FLIPR assay (agonist mode). In kind it is cell-based. Particulars: footnote: Curve fitting with activation (%) @ 10 mM with RFU. The protocol:
The potential excitatory effects of compounds targeting on 5-hydroxytryptamine receptor 1A under agonist mode was assessed.
HTR1A&Ga15-CHO cells were cultured in DMEM/F12 medium containing 10% dialyzed FBS, 1× penicillin-streptomycin and 600 μg/mL Hygromycin B. The cells were passaged about three times a week, maintained between […] confluence.
• 1. The cell culture medium (DMEM/F12 medium containing 10% dialyzed FBS, 1× penicillin-streptomycin and 600 μg/mL Hygromycin B), TrypLE™ Express and DPBS was warmed to R.T. in advance. • 2. The cell culture medium was removed from the flask. The cells were washed with DPBS. • 3. 1 mL TrypLE™ Express was added to the flask, mixed well by gentle shaking and then cells were incubated at 37° C. for a few minutes. • 4. The cells morphological change was checked under microscope, and the digestion stopped by adding 2 mL cell culture medium to the flask when most of cells turned to round. • 5. The cell suspension was transferred into a 15 mL centrifuge tube, and then centrifuged at 1,200 rpm for 5 minutes. • 6. The supernatant was removed. The cell pellet was resuspended with 2 mL cell culture medium. • 7. The cell density was counted using cell counter. Only cells with >85% viability were used for the assay. • 8. The cells were diluted to 4×10^5/mL with cell culture medium. • 9. 30 μL/well cell suspensions were added into a 384-well cell plate (The cell density was 12,000 cells/well). • 10. The cell plate was incubated overnight at 37° C., 5% (v/v) CO2. 3.3 Cell handling • 1. On the day of experiments, culture medium was removed from the cell plate. • 2. 10 μL of assay buffer (20 mM HEPES, in 1× HBSS, pH 7.4) was added to each well of the cell plate. • 3. 2× dye solution was prepared following the manufacture's instruction of the FLIPR® Calcium 6 assay kit: • i. The dye was diluted with assay buffer. • ii. Probenecid was added to the final concentration of 5 mM. • iii. Vigorously vortex for 1-2 minutes, and pH was adjusted to 7.4. • 4. 10 μL of 2× dye solution was added to each well of the cell plate. • 5. The cell plate was placed on plate shaker, followed by shaking at 600 rpm for 2 minutes. • 6. The plate at 37° C. was incubated for 2 hours followed by an additional 15-minute incubation at 25° C.
• 1. Serotonin was prepared to the concentration of 10 mM with DMSO, 3-folds serial dilutions were performed with DMSO. • 2. The test compounds were prepared to the concentration of 10 mM with DMSO, 3-folds serial dilutions were performed with DMSO. • 3. The compounds were added to a 384-well compound source plate. • 4. 90 nL/well of serial diluted compounds were transferred from source plate to a 384-well compound plate by using an Echo. • 5. 30 μL/well of assay buffer was added to the compound plate. • 6. The plate-on-plate shaker was mixed for 2 minutes.
• 1. After the cells had incubated with dye solution, the cell plate, compound plate containing 3×compounds and FLIPR tips were placed into FLIPR. • 2. 10 μL of 3×compounds were transferred from the compound plate to the cell plate by FLIPR. • 3. The plate was read for 160 sec with 1 sec interval to obtain the data of agonist mode.
• 1. The normalized fluorescence reading (RFU) was calculated as shown below, wherein Fmax and Fmin stand for maximum and minimum of calcium signal during defined time window:
2. EC50 was calculated by fitting RFU against log of compound concentrations with Hill equation using XLfit.

Data set [2] is described as follows: in vitro. The conditions noted are these: mouse, microsomes.
Method: The concentrations of parent compounds in reaction systems were evaluated by LC-MS/MS for estimating the stability in pooled human, male rat and male mouse liver microsomes. The in vitro intrinsic clearances of test compounds were determined as well. Protocol
A master solution in the “Incubation Plate” containing phosphate buffer, ultra-pure H2O, MgCl2 solution and liver microsomes was made according to Table 6. The mixture was pre-warmed at 37° C. water bath for 5 minutes.
The reaction was started with the addition of 4 μL of 200 μM exemplary test compounds of the application or control compounds to each master solution to get the final concentration of 2 μM. This study was performed in duplicate.
Aliquots of 50 μL were taken from the reaction solution at 0, 15, 30, 45 and 60 minutes. The reaction solutions were stopped by the addition of 4 volumes of cold methanol with IS (100 nM alprazolam, 200 nM imipramine, 200 nM labetalol and 2 μM ketoprofen). Samples were centrifuged at 3,220 g for 40 minutes. Aliquot of 90 μL of the supernatant was mixed with 90 μL of ultra-pure H2O and then was used for LC-MS/MS analysis.
All calculations were carried out using Microsoft Excel. Peak area ratios of test compound to internal standard (listed in the below table) were determined from extracted ion chromatograms.
All calculations were carried out using Microsoft Excel. Peak areas were determined from extracted ion chromatograms. The slope value, k, was determined by linear regression of the natural logarithm of the remaining percentage of the parent drug vs. incubation time curve.
The in vitro half-life (in vitro t½) was determined from the slope value:
Conversion of the in vitro t½ (min) into the in vitro intrinsic clearance (in vitro CLint, in μL/min/mg proteins) was done using the following equation (mean of duplicate determinations):

Structures are written as SMILES. Counter-ions that a name gives are not always drawn. Bounds are passed on as bounds.

Turning to `CC(C)N(CCc1c[nH]c2cccc(O)c12)C(C)C` [Compound 7], the “RFU@10 μM” value in data set [1] is reported as 74 RFU.
With `CN(C)CCc1c[nH]c2cccc(OC(=O)CCCC(=O)Oc3cccc4[nH]cc(CCN(C)C)c34)c12` [Compound I-24, Bis(3-(2-(dimethylamino)ethyl)-1H-indol-4-yl) glutarate], the “RFU@10 μM” value in data set [1] came out at 169 RFU. In data set [2], the half-life (usually how long it takes for the measured level to halve) at 2 µM is less than 4.51 min; the intrinsic clearance (microsomal CLint) – broadly, the capacity of the preparation to metabolise the compound, expressed as a volume cleared per time – at 2 µM is greater than 307 µL/min/mg; the amount remaining – broadly, the share of the starting amount still present when the sample was taken – at 1 h, 2 µM turned out to be 0%.
In the same order, the values of `CC(C)N(CCc1c[nH]c2cccc(OC(=O)CCCC(=O)Oc3cccc4[nH]cc(CCN(C(C)C)C(C)C)c34)c12)C(C)C` [Compound I-37, Bis(3-(2-(diisopropylamino)ethyl)-1H-indol-4-yl) glutarate dihydrochloride] are 62 RFU, less than 4.51 min, greater than 307 µL/min/mg and 0%.
`CN(C)CCc1c[nH]c2cccc(O)c12` [Psilocin, 4-hydroxy-N,N-dimethyltryptamine, reference compound]: in data set [1], the “RFU@10 μM” value was determined as 140 RFU. For the same compound, the share remaining at 1 h, 2 µM in data set [2] came out at 96.9%.
With `CN(C)CCc1c[nH]c2cccc(OP(=O)(O)O)c12` [Psilocybin], the “RFU@10 μM” value in data set [1] amounted to 143 RFU.
